According to paper PMC4928094, “The first characterization of multidrug and toxin extrusion (MATE/SLC47) proteins in zebrafish (Danio rerio)” (Scientific Reports, 2016):
pIC50: −log10 of the molar value. Like-named read-outs stand apart in the source and are kept apart here.

Key:
human MATE2 = human MATE2 ref 40; cited from earlier work
zebrafish Mate4 = zebrafish Mate4 (Danio rerio, UniProt U3Q0C3); assay: DAPI inhibition assay, Mate4; type: cell-based
Description: (§1) HEK293T cells were transiently transfected as described previously[31] using the PEI (polyethyleneimine) reagent in 48-well plates. Cells were in parallel transfected with pcDNA3.1/His/LacZ plasmid and transfection efficiency was evaluated 24 h after transfection with the LacZ staining protocol.
(§2) HEK293T cells overexpressing respective single zebrafish Mate transporter were used for further experiments. […] DAPI fluorescence was measured at 360 and 460 nm […], respectively. The uptake into vector-transfected HEK293T cells (mock cells) was subtracted to obtain transporter-specific uptake.
(§3) Inhibition assays using DAPI as a fluorescent substrate were performed in the same transport medium. […] Compounds tested for interaction were checked using at least four concentrations but only a representative concentration (with the highest response or the largest concentration in solubility range) is shown.
(§4) For the purpose of IC50 calculations, data were fitted to the sigmoidal four-parameter dose-response model (variable slope),

zebrafish Mate8 = zebrafish Mate8 (Danio rerio, UniProt A0A8M6YZ09); assay: DAPI inhibition assay, Mate8; type: cell-based; settings: for interaction strength: Mate8, class by IC50 of DAPI uptake inhibition
Chain of zebrafish Mate8 (A0A8M6YZ09 entry or part of it): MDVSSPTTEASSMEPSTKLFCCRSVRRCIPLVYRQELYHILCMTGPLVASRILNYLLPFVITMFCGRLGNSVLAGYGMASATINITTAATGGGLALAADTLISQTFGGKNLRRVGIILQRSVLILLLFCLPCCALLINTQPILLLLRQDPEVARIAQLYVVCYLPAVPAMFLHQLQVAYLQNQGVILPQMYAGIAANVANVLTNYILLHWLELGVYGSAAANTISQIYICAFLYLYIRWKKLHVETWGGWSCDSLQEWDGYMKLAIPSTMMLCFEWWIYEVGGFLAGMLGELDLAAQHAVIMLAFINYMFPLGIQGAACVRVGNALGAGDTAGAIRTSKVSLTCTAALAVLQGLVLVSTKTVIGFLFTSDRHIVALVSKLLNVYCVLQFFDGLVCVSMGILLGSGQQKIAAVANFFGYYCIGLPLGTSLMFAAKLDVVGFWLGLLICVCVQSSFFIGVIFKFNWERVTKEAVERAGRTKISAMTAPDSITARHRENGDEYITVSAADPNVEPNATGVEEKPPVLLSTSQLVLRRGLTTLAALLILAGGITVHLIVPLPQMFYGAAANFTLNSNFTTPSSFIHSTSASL
Description: as §1, §2, §3, §4

zebrafish Mate7 = zebrafish Mate7 (Danio rerio, UniProt U3PTD6); assay: DAPI inhibition assay, Mate7; type: cell-based; settings: for interaction strength: Mate7, class by IC50 of DAPI uptake inhibition
Chain of zebrafish Mate7 (U3PTD6 entry or part of it): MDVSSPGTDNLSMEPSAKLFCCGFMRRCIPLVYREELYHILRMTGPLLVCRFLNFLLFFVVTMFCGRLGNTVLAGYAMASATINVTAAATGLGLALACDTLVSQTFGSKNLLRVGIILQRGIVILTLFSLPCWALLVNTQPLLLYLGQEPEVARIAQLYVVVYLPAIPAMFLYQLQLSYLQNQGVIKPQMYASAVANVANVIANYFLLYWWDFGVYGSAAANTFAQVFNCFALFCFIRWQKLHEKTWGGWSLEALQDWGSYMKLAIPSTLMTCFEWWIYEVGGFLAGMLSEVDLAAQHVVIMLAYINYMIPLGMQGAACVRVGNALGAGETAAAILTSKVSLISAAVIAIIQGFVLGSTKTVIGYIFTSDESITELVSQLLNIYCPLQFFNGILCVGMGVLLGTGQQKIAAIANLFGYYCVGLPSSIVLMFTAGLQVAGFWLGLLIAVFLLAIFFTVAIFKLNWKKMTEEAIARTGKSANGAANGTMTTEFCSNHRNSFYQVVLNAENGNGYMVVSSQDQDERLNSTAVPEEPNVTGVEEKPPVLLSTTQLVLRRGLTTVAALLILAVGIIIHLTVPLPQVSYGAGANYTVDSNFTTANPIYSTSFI
Description: as §1, §2, §3, §4

zebrafish Mate6 = zebrafish Mate6 (Danio rerio, UniProt A1L2E7); assay: DAPI inhibition assay, Mate6; type: cell-based
Chain of zebrafish Mate6 (A1L2E7 entry or part of it): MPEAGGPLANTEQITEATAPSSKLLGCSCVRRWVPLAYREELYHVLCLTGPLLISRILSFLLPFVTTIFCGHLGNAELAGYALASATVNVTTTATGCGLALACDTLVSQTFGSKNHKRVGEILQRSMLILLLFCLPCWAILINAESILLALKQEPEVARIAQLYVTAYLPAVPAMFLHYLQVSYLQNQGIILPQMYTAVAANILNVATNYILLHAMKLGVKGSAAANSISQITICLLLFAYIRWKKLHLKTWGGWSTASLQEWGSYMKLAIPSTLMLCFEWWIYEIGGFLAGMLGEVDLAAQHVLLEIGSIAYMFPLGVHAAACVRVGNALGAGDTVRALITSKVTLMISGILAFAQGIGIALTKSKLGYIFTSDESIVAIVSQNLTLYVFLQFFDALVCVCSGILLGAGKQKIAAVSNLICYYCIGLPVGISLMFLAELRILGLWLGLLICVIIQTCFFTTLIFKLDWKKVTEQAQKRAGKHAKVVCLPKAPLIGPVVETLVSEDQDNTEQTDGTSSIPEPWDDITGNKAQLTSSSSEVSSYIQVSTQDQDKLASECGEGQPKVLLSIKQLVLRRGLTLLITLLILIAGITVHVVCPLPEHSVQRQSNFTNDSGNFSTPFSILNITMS
Description: as §1, §2, §3, §4

human MATE1 = human MATE1 ref 40; cited from earlier work
rat Mate1 = rat Mate1 ref 3; cited from earlier work

Chain of zebrafish Mate4 (U3Q0C3 entry or part of it): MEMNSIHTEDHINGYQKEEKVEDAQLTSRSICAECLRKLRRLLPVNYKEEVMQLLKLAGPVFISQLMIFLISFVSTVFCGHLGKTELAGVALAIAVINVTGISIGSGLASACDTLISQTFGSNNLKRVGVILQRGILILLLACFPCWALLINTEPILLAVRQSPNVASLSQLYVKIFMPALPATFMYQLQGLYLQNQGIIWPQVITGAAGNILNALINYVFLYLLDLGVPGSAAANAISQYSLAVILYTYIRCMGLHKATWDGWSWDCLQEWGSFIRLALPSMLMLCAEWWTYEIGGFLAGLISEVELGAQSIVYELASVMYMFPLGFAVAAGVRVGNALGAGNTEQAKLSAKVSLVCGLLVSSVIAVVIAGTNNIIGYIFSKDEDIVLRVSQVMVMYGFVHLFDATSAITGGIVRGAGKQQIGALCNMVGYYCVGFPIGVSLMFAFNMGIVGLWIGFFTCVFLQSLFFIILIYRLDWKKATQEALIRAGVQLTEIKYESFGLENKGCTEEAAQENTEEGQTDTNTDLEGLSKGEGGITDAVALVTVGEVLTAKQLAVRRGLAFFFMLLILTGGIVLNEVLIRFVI

For `Cc1ncc(C[n+]2csc(CCO)c2C)c(N)n1` [Thiamine, thiamine], the Km (human MATE2) is given as 3.9 µM, the pIC50 (zebrafish Mate4; read-out: IC50) is given as 3.09 and the interaction strength (zebrafish Mate8) is given as “very weak (substances with IC50 above 1000 μM were considered very weak interactors)”. For the same compound, the pIC50 (zebrafish Mate8; read-out: IC50) was 2.72, the interaction strength (zebrafish Mate7) was “weak (IC50 of 100–999 μM was classified as weak interaction)” and the pIC50 (zebrafish Mate7; read-out: IC50) was 3.03. For the same compound, the pIC50 (zebrafish Mate6; read-out: IC50) was 3.14 and the Km (human MATE1) was 3.5 µM.

For `CN/C(=N/CCSCc1nc[nH]c1C)NC#N` [Cimetidine, cimetidine, reference compound], the pIC50 (zebrafish Mate4) was 3.87, the pIC50 (zebrafish Mate8) was 5.35 and the interaction strength (zebrafish Mate8) was “strong (Compounds with IC50 of 1–29 μM were designated as strong interactors)”. For the same compound, the pIC50 (zebrafish Mate7) was 3.24, the interaction strength (zebrafish Mate7) was “weak (IC50 of 100–999 μM was classified as weak interaction)” and the pIC50 (zebrafish Mate6) was 3.45. For the same compound, the Km (rat Mate1) was 3 µM.
